In patent US12527736B2, “Punica granatum extract and its cosmetic uses” (L'OREAL, priority 2019, dated 2026):

Test system: Normal human fibroblasts
Test: Peroxidation of lipids test: protection against UVA-induced lipid peroxidation (8-iso-Prostanes release)
Type: cell-based
Settings: pure ellagic acid at 3 μM for 24 h, then UVA exposure, assayed 2 h30 after exposure
Procedure: An evaluation of the protection potential against UVA-induced lipid peroxidation of Punica granatum extract according to the invention obtained according to Example 1 was made and compared to the protection against UVA-induced lipid peroxidation of pure ellagic acid. Normal human fibroblasts are treated either with the Punica granatum extract according to the invention at 0.001% or with pure ellagic acid at 3 μM for 24 h and then exposed to a UVA dose inducing no more than 20% cell death. A control was performed consisting in normal human fibroblasts exposed to a UVA dose inducing no more than 20% cell death. 8-iso-Prostanes release is assayed 2 h30 after the exposure.

O=c1oc2c(O)c(O)cc3c(=O)oc4c(O)c(O)cc1c4c23 [Ellagic acid, ellagic acid]
protection against lipid peroxidation (UV-exposed control = 0%): 35% | release of 8-iso-Prostanes (UV-exposed control = 100%): 65%
